These results are taken from a melting point compilation (Tetko et al.; mined from patent text by program, amines drawn as free bases though some values may be those of a salt).

As a reminder, the melting point is the temperature, or range, at which the solid turns liquid.

Turning to `O=c1nc(-c2cccc(CN3CCN(c4ccc(F)cc4)CC3)n2)sc2ccccc12`, the melting point lay within 156 to 157 °C.

`CC(=O)NCCCCC(NC(C)=O)C(C)=O` (stereo unspecified) came in with a melting point of 111 to 113 °C.

For the compound `O=[N+]([O-])c1ccc(-c2cc3c(Oc4ccc(Cl)cc4)cncc3s2)cc1`, the melting point is 193 to 195 °C.

In turn, `CNC(=O)[C@H](Cc1ccc(OC)cc1)NC(=O)[C@@H](N)CC(C)C` registered a melting point of 128 to 132 °C.

For the compound `COc1cc(OC)nc(NC(=O)NS(=O)(=O)c2ccccc2-c2nccn2C)n1`, the melting point was 182 to 183 °C.

Regarding `Cc1ccc(-c2nc(COc3ccc(CCCCn4ccnc4)cc3)co2)s1`, the melting point lay in the range of 82 to 83 °C.

As for `CCOc1ccc(OC)c([N+](=O)[O-])c1`, the melting point fell in the range of 33 to 36 °C.

For `NS(=O)(=O)c1cccc(-c2cc(-c3nc(-c4ccc(C(F)(F)F)nc4)cc(C(F)(F)F)n3)ccn2)c1`, the melting point was 258 °C.

In the case of `Cc1cc(-c2cccc(C3=Nc4ccc(-c5ccc(F)cc5)cc4NC(=O)C3)c2)on1`, the melting point was greater than 250 °C.

Consider `CC(=O)C1CCC2C3CCC4CC(O)CCC4(C)C34OC4CC12C` (stereo unspecified), for which the melting point was in the range of 160 to 162 °C.

In turn, `COc1cccc(Cl)c1-c1cc2c(c3c1C(=O)NC3=O)c1cc(O)ccc1n2CCCN1C[C@@H](C)N[C@@H](C)C1` gave a melting point of 199 to 202 °C.

`O=C(NNc1ccc(Cl)cc1)c1cnc2ccc(I)cc2c1O` came in with a melting point of 250 to 252 °C.

`CC(C)c1nc(C(O)(C(F)(F)F)C(F)(F)F)[nH]c1-c1ccccc1` had a melting point of 80 to 81 °C.

For the compound `CC1(C)Oc2ccc(C#N)cc2[C@@H](NC(=O)Nc2ccc3c(c2)CN(C(=O)OCC(Cl)(Cl)Cl)C3)[C@@H]1O`, the melting point fell in the range of 201 to 203 °C.

The compound `N#Cc1ccc(CBr)c([N+](=O)[O-])c1` showed a melting point of 85 to 89 °C.

As for `Cc1c(C(=O)Nc2ccc(OCC(C)(C)C)c(C#N)c2)cnn1C1CCCCC1`, the melting point was 126 to 128 °C.

Turning to `CCOC(=O)C(C)(C)N1OCC(CSC)=C(c2ccccc2)C1=O`, the melting point fell in the range of 105 to 106 °C.

`Cc1c(C=O)c2cnnc(NCc3ccccc3)c2n1Cc1ccccc1` came in with a melting point of 171 to 172 °C.

Compound `Clc1cc2nc(NC3=NCCN3)[nH]c2c(Cl)c1Cl` showed a melting point of 324 to 326 °C.

`COc1ccc(C[C@H]2[C@H](CO)CCCN2C)cc1` (relative stereo) returned a melting point of 66 to 68 °C.

Turning to `Clc1ccccc1-c1nc2occn2c1-c1ccnc(N[C@H]2CN3CCC2CC3)n1`, the melting point was in the range of 132 to 134 °C.

Turning to `CC(C)(Cc1ccccc1)C(NC(=O)c1cccc(Cl)c1)Nc1c(Nc2cccnc2)c(=O)c1=O` (single isomer, unassigned; (-)), the melting point lay within 178 to 179 °C.

As to `CC1(C)CC(=O)C2=C(C1)NC1=C(C(=O)CC(C)(C)C1)C2c1cccc(-n2ccnc2)c1`, the melting point lay within 286 to 288 °C.

Consider `Cc1ccc2c(=O)[nH]c(=O)n(C(C)C)c2c1`, for which the melting point was in the range of 250 to 251 °C.

Compound `Cc1ccc2sc(=O)[nH]c2c1` had a melting point of 86 to 88 °C.

Consider `CCC(O)=C1C(=O)OC(C)(C)OC1=O`, for which the melting point fell in the range of 43 to 46 °C.

The compound `CC(=O)OCC1OC(n2cc(C(Br)=CI)c(=O)[nH]c2=O)C(OC(C)=O)C1OC(C)=O` (stereo unspecified) gave a melting point of 86 to 88 °C.

Regarding `CC1(C)Oc2ccc(C(F)(F)F)cc2[C@@H](NC(=O)Nc2ccccc2)[C@@H]1O` (relative stereo), the melting point was in the range of 174 to 175 °C.

For `Cn1nc(-c2ccc(F)cc2)c(-c2ccncc2)c1NC(=O)Cc1ccc(O)cc1`, the melting point was 127 to 129 °C.

In turn, `CCCCCOc1ccc2cc(C(C)C(=O)O)ccc2c1` (stereo unspecified) returned a melting point of 97 to 99 °C.

The compound `O=C(O)CCCCCN1C(=O)c2ccc([N+](=O)[O-])cc2C1=O` yielded a melting point of 140 °C.

`CC(C)(N)CCOc1ccc(Cl)nn1` displayed a melting point of 63.5 to 65 °C.

In the case of `CCSc1cc(C(C)(C)C)c(O)c(C(C)(C)C)c1`, the melting point stood at 33 °C.

`O=[N+]([O-])c1c(Br)nc2ccc(Cl)cc2c1C(F)(F)F` returned a melting point of 120 °C.

`CCN(CCN(CC)c1ccc(N=O)c(C)c1)c1ccc(N=O)c(C)c1` came in with a melting point of 157 °C.

The compound `COC1(OC)CN(c2c(F)cc3c(=O)c(C(=O)O)cn(C4CC4)c3c2F)CC1C` (stereo unspecified) showed a melting point of 214 to 216 °C.

On to `COC(=O)C(=COCF)c1ccccc1CBr`, for which the melting point lay in the range of 73 to 76 °C.

`NC(=O)C(CCc1ccccn1)(c1ccccc1)c1ccccc1` had a melting point of 145 to 146 °C.

Compound `O=Cc1ccc2ccnc(NC(=O)c3ccccc3)c2c1` gave a melting point of 138 to 139 °C.

`CCOc1cc(N)c(Cl)cc1C(=O)NCC1CN(Cc2ccccc2Cl)C(C)(C)CO1` (stereo unspecified) yielded a melting point of 181 to 184 °C.

`CN1c2ccncc2NC(c2ccccc2)c2cccn21` (stereo unspecified): the melting point lay in the range of 200 to 203 °C.

As to `CCNC(=O)c1ccsc1[Si](C)(C)C`, the melting point is 114 to 116 °C.

`COc1ccc(C2=NN(C3CCN(CCCCCCN4C(=O)c5ccccc5C4=O)CC3)C(=O)[C@@H]3CC=CC[C@H]23)cc1OC` displayed a melting point of 39 to 44 °C.

In turn, `CN(C(=O)Nc1ccc2c(ccn2C)c1)c1cccnc1` registered a melting point of 58 to 60 °C.

Compound `CC(C)(C)c1cc(Nc2cccc(OCC(=O)O)c2)cc(C(C)(C)C)c1O` displayed a melting point of 127 to 128 °C.

`CC(=O)c1cc(-c2c(Cl)ccc(C(=O)O)c2Cl)n(C)n1` came in with a melting point of 200 to 203 °C.

On to `O=c1oc2cc(OCC3CO3)ccc2c2c1CCCC2` (stereo unspecified), for which the melting point was 120 to 121 °C.

`COc1cc(F)ccc1C(C)(C)CC#N` had a melting point of 80 to 83 °C.

With `COc1ccc(COc2cccnc2NC(=N)Nc2ccccc2)cc1`, the melting point was in the range of 141 to 143 °C.

`N#Cc1ccc(N(CCCCOc2ccc(O)cc2)n2cnnc2)cc1` registered a melting point of 156 to 159 °C.

In the case of `CN1C(=O)CC[C@]2(C)c3ccc(-c4cccc(CNC(c5ccccc5)c5ccccc5)c4)cc3CC[C@@H]12`, the melting point is 55 to 57 °C.

Regarding `O=C(Cl)c1cnc(O)c(Cl)c1`, the melting point was greater than 250 °C.

Compound `CCOC(=O)C(=CO)CCN1CCC(C2(c3ccc(F)cc3)OCCO2)CC1` returned a melting point of 117 °C.

In turn, `CC(=O)Oc1ccc(CCC2CC(C)(OC(C)=O)CC(=O)O2)cc1` (stereo unspecified) showed a melting point of 72 to 75 °C.

As for `Cc1ccc(C(=O)C2=C(O)C(=O)N(c3ncc(S(=O)(=O)c4ccc([N+](=O)[O-])cc4)s3)C2c2cccnc2)cc1` (stereo unspecified), the melting point came out at 211 °C.

Compound `O=c1nc(-c2ccsc2)c2c(=O)nc(-c3ccsc3)c1=2` came in with a melting point greater than 400 °C.

In turn, `CC(=O)NCCc1ccc(C(=O)c2cccc(F)c2)cc1` had a melting point of 78 °C.

In the case of `CCCO[C@@H](Cc1ccc(OCCc2nc(-c3ccc(-c4ccccc4)cc3)oc2C)c2ccsc12)C(=O)O`, the melting point is 147 to 151 °C.

Compound `COC(=O)c1ccc(C2C(C(=O)c3ccc(OC)cc3)=C(O)C(=O)N2c2nnc(C)s2)cc1` (stereo unspecified) returned a melting point of 255 to 257 °C.

Consider `COc1ccc(NC2=NN(c3cccc(C(F)(F)F)c3)CC2)cc1`, for which the melting point lay in the range of 127 to 128 °C.

Turning to `N#Cc1ccc(N(Cc2ccc(Br)cc2)n2cnnc2)cc1`, the melting point came to 203 °C.

`CCOC(=O)Nc1c(Cl)cccc1[Si](C)(C)C`: the melting point fell in the range of 109 to 110 °C.

Turning to `O=C(O)c1ccc(N2C(=O)c3cccc([N+](=O)[O-])c3C2=O)cc1`, the melting point was greater than 300 °C.

In the case of `O=C(CCc1ccc2cccc(O)c2n1)NO`, the melting point lay within 165 to 167 °C.

With `O=C(c1ccccc1CN1C(=O)C2(COc3cc4c(cc32)CCO4)c2ccccc21)N1CCCCC1` (stereo unspecified), the melting point lay within 168 to 170 °C.

For `CN1CC(c2ccc(OC(F)(F)F)cc2)(c2ccc(F)c(-c3cccnc3F)c2)N=C1N` (stereo unspecified), the melting point lay in the range of 65 to 70 °C.

As to `N#Cc1ccc2c(c1)-c1cc(C#N)ccc1OCCO2`, the melting point lay within 195 to 196 °C.

In turn, `COc1ccc(C(=O)Nc2nc3ccc([N+](=O)[O-])cc3c(NCc3cccs3)c2C#N)cc1` displayed a melting point of 217 to 220 °C.

Consider `BrC1=C(Br)C(Br)(Br)C(Br)=C1Br`, for which the melting point is 87 to 88 °C.

`CC(C)(O)C[C@@H]1CO[C@](C)([C@H]2CC[C@H]3[C@@H](O)CCC[C@@]32C)C1` yielded a melting point of 67 °C.

Take `Cc1nc(/C=C/c2cccc(Cl)c2F)no1`: the melting point is 95 to 98 °C.

`O=[N+]([O-])c1nccn1CC(O)CN1C2CCCCCC21` (stereo unspecified) showed a melting point of 91 to 91.5 °C.

For the compound `Cc1cc(C#N)ccc1-c1cccc(C=O)c1`, the melting point lay within 86 to 86.5 °C.

The compound `CC1(C)C(=O)N(c2ccc([N+](=O)[O-])c(C(F)(F)F)c2)C(=O)N1CCCN1C(=O)N(c2ccc([N+](=O)[O-])c(C(F)(F)F)c2)C(=O)C1(C)C` gave a melting point of 164 to 165 °C.

The compound `CN1CCC(c2c[nH]c3ccc(NC(=O)c4cccnc4)nc23)CC1` displayed a melting point of 136 to 137 °C.

`OC1CCCc2nc3cc(F)ccc3c(NCc3ccccc3C(F)(F)F)c21` (stereo unspecified) returned a melting point of 149 to 153 °C.

As for `CCOC(=O)c1cn(Cc2ccccc2OC)c2sc(-c3ccc(N)cc3)c(CN(C)Cc3ccccc3)c2c1=O`, the melting point lay in the range of 120 to 122 °C.

In turn, `O=C(Cl)COC(=O)c1ccccc1` had a melting point of 25 to 26 °C.

Consider `CC(C)(C)c1ccc(Nc2ncc(-c3ccc4ncncc4c3)c3ccccc23)cc1`, for which the melting point lay in the range of 213 to 214 °C.

With `Cn1c(C=NNC(N)=S)cnc1[N+](=O)[O-]`, the melting point was 282 to 287 °C.

With `O=C1c2c(-c3ccccc3F)noc2CCC1CCCN1CCN(C(c2ccc(F)cc2)c2ccc(F)cc2)CC1` (stereo unspecified), the melting point fell in the range of 95 to 97 °C.

For the compound `COc1cc2c(cc1OC)CN(CCCCOc1ccc(NC(=O)c3nccc4ccccc34)cc1)CC2`, the melting point lay in the range of 122 to 123 °C.

Compound `Cc1cc(O)c2cccc(OCc3c(Cl)ccc([N+](=O)[O-])c3Cl)c2n1` showed a melting point of 255 to 258 °C.

Regarding `O=C(NCc1ccccn1)Nc1cc(N2CC(c3ccccc3F)CC2=O)ccn1` (stereo unspecified), the melting point is 173 to 174 °C.

The compound `Cc1c(C)c(N2C(=O)c3cc(Cl)c(Cl)cc3C2=O)c(C)c2c1OC(C)(C)C2c1ccc(C(C)C)cc1` (stereo unspecified) returned a melting point of 237 to 239 °C.

Regarding `CC(C)(C)c1ccc(OCCCCCN2CCN(c3nccs3)CC2)cc1`, the melting point is 71 to 73 °C.
